{
  "source": "patent US20190000789A1",
  "about": "“COMPOSITION AND METHOD FOR TREATING INFECTIONS CAUSED BY VANCOMYCIN-RESISTANT INFECTIOUS AGENTS IN A SUBJECT” (priority 2015, published 2019)",
  "key": {"[1]": {"tested_on": "S. coelicolor LAG2 (ddl suppressor mutant)", "assay": "MIC of vancomycin on MM agar plates with added D-Ala or L-Ala", "assay_type": "cell-based, Streptomyces coelicolor", "conditions": "Streptomyces coelicolor", "description": "VanS is the sensory kinase of a two-component system formed with VanR, and it has been shown previously that certain mutations in vanS will constitutively upregulate the vancomycin resistance cluster, explaining the viability of strain LAG2 in the absence of vancomycin.\n(§1) Escherichia coli strains JM109 (Sambrook et al., 1989) and ET12567 (Kieser et al., 2000) were used for routine cloning procedures and for extracting non-methylated DNA, respectively. Cells of E. coli were grown in Luria-Berani broth (LB) at 37° C. Streptomyces coelicolor A3(2) M145 was the parent of all mutants described in this work. All media and routine Streptomyces techniques were carried out as described (Kieser et al., 2000). SFM (soy flour mannitol) agar plates were used for propagating S. coelicolor strains and to prepare spore suspensions. For liquid-grown cultures, S. coelicolor mycelia were grown in normal minimal media with phosphate (NMMP) supplemented with 1% (w/v) mannitol as the sole carbon source. The MIC of vancomycin against S. coelicolor M145 and its mutant derivatives were determined by growth on minimal media (MM) agar plates supplemented with 1% mannitol as the sole carbon source, and 0, 2, 4, 8, 16, 32, 64, 128, 256 or 512 μg/ml vancomycin, in combination with 0, 1, 5, 10 or 50 mM of D-Ala or L-Ala. The vanX deletion mutants have been tested with 1, 5, 10, 50 and 100 μM D-Ala and L-Ala."}, "S. coelicolor M145": {"tested_on": "S. coelicolor M145", "assay": "MIC of vancomycin on MM agar plates with added D-Ala or L-Ala", "assay_type": "cell-based, Streptomyces coelicolor", "conditions": "for MIC: Streptomyces coelicolor", "description": "The naturally vancomycin-resistant model organism S. coelicolor M145 was used as the initial test system. The strain was grown on solid minimal medium (MM) agar plates with increasing amounts of D-Ala and vancomycin. D-Ala was thereby added in concentrations of 5, 10 and 50 mM and the effect on the MIC of vancomycin assessed. As a first control, L-Ala was added and, as a second control, no amino acids were added. […] This was not altered when the culture media were supplemented with up to 50 mg/ml L-Ala (Table 1 and FIG. 6).\nas §1"}, "[2]": {"tested_on": "clinical isolates of vanA-positive Enterococcus faecium", "assay": "MIC of vancomycin by serial dilution, isolates not named individually", "assay_type": "cell-based", "conditions": "for MIC: Enterococcus faecium", "description": "Having established the important role of D-Ala in enhancing the efficacy of vancomycin against vancomycin-resistant S. coelicolor cells, next, its effect on the resistance of clinical isolates of Enterococcus faecium, which were vanA-positive strains, was assessed. MIC values were calculated by testing a serial dilution of vancomycin in the presence or absence of D-Ala in triplicate (Table 3).\nThe MIC was determined by measurement of the OD600 or by visual assessment, following the Clinical Laboratory and Standards Institute (CLSI) guidelines. […] This value compares to intermediate instead of total resistance. The strains were serially diluted in a 96-well plate and growth was assayed at OD600. The steps down refer to CSLI guidelines for clinical MIC measurements.\nFive vanA-positive Enterococcus faecium strains were collected in 2011 and 2014 from patients in the Erasmus University Medical Centre, Rotterdam, The Netherlands. Presence of the vanA gene was confirmed by real-time PCR with the LIGHTCYCLER® 480 instrument (Roche Diagnostics, Almere, The Netherlands) with the primers vanA F1 and vanA R1, and the vanA probe. The resistance profile of these isolates was determined as MIC values using the VITEK II (BioMerieux) system AST-P586. To determine the MIC of vancomycin against E. faecium, cells were grown overnight on Trypticase Soy Agar (TSA) blood agar plates (Becton Dickinson, Breda, The Netherlands) and suspended in 0.9% NaCl until OD600 0.5 (±0.05). Of this suspension, 10 μl was dispensed into wells of sterile flat-bottom 96-well polystyrene tissue culture plates (Greiner Bio-One, Alphen aan Den Rijn, The Netherlands) containing serial dilutions of vancomycin in 190 μl of a 1:1 mixture of Fetal Bovine Serum (FBS) (Gibco, Bleiswijk, The Netherlands) and Iscove's Modified Dulbecco's Medium (IMDM) (without phenolred, Gibco, Bleiswijk, The Netherlands), and in the presence or absence of 50 mM D-alanine (Alfa Aesar, Ward Hill, Mass., USA). Plates were incubated for 18-24 hours at 37° C. and MIC values determined visually following the CLSI guidelines, or by spectrophotometer at 600 nm."}, "[3]": {"tested_on": "S. coelicolor LAG2 ΔvanX (LAG4)", "assay": "MIC of vancomycin on MM agar plates with added D-Ala", "assay_type": "cell-based", "conditions": "Streptomyces coelicolor", "from_the_text": "VanX effectively eradicates the D-Ala-D-Ala dipeptide, thereby counteracting the accumulation of wild-type precursors and supporting vancomycin resistance (Lessard and Walsh, 1999; Tan et al., 2002). Therefore, a vanX null mutant was created using a similar strategy as for ddl, replacing the coding region of vanX by the apramycin resistance cassette aacC4. The mutant was created in both the parental strain S. coelicolor M145 and in its ddl suppressor mutant LAG2, generating LAG3 (M145 ΔvanX) and LAG4 (M145 Δddl ΔvanX vanS::IS466A), respectively.\nLAG4 produced 20% wt precursors prior to the addition of D-Ala.\nas §1"}},
  "note": "Read-outs that look alike come from different tables or passages of the source.",
  "data": [
    {"smiles": "CN[C@H](CC(C)C)C(=O)N[C@H]1C(=O)N[C@@H](CC(N)=O)C(=O)N[C@H]2C(=O)N[C@H]3C(=O)N[C@H](C(=O)N[C@H](C(=O)O)c4cc(O)cc(O)c4-c4cc3ccc4O)[C@H](O)c3ccc(c(Cl)c3)Oc3cc2cc(c3O[C@@H]2O[C@H](CO)[C@@H](O)[C@H](O)[C@H]2O[C@H]2C[C@](C)(N)[C@H](O)[C@H](C)O2)Oc2ccc(cc2Cl)[C@H]1O", "note": "[vancomycin]", "values": [
      {"measurement": "MIC", "setting": "[1]; LAG2, 0 mM D-Ala", "value": 128, "unit": "µg/mL"},
      {"measurement": "MIC", "setting": "[1]; LAG2, 5 mM D-Ala", "value": 64, "unit": "µg/mL"},
      {"measurement": "MIC", "setting": "[1]; LAG2, 10 mM D-Ala", "value": 32, "unit": "µg/mL"},
      {"measurement": "MIC", "setting": "[1]; LAG2, 50 mM D-Ala", "value": 4, "unit": "µg/mL"},
      {"measurement": "reduction of the MIC of vancomycin", "setting": "S. coelicolor M145; M145, 10 mM D-Ala", "value": 4, "unit": "fold"},
      {"measurement": "reduction of the MIC of vancomycin", "setting": "S. coelicolor M145; M145, 50 mM D-Ala", "value": 32, "unit": "fold"},
      {"measurement": "MIC", "setting": "S. coelicolor M145; M145, read-out: MIC of vancomycin, M145, 0 mM D-Ala", "value": 128, "unit": "µg/mL"},
      {"measurement": "MIC", "setting": "S. coelicolor M145; M145, read-out: MIC of vancomycin, M145, 5 mM D-Ala", "value": 32, "unit": "µg/mL"},
      {"measurement": "MIC", "setting": "S. coelicolor M145; M145, read-out: MIC of vancomycin, M145, 10 mM D-Ala", "value": 32, "unit": "µg/mL"},
      {"measurement": "MIC", "setting": "S. coelicolor M145; M145, read-out: MIC of vancomycin, M145, 50 mM D-Ala", "value": 4, "unit": "µg/mL"},
      {"measurement": "MIC", "setting": "[2]; worst cases, 50 mM D-Ala", "value": 256, "unit": "µg/mL"},
      {"measurement": "MIC", "setting": "[2]; worst cases, without D-Ala", "value": 4100, "unit": "µg/mL"},
      {"measurement": "reduction of MIC of vancomycin in dilution steps", "setting": "[2]; all clinical isolates, 50 mM D-Ala", "value": "4-7 dilution steps"},
      {"measurement": "MIC of vancomycin", "setting": "[2]; worst cases, 50 mM D-Ala", "value": 128, "unit": "µg/mL"},
      {"measurement": "MIC", "setting": "[3]; read-out: MIC of vancomycin, LAG2 ΔvanX, 0 μM D-Ala", "value": 64, "unit": "µg/mL"},
      {"measurement": "MIC", "setting": "[3]; read-out: MIC of vancomycin, LAG2 ΔvanX, 10 μM D-Ala", "value": 32, "unit": "µg/mL"},
      {"measurement": "MIC", "setting": "[3]; read-out: MIC of vancomycin, LAG2 ΔvanX, 50 μM D-Ala", "value": 8, "unit": "µg/mL"},
      {"measurement": "MIC", "setting": "[3]; read-out: MIC of vancomycin, LAG2 ΔvanX, 100 μM D-Ala", "value": 2, "unit": "µg/mL"}
    ]}
  ]
}
